Laboratory results published in patent publication US9408393B2, “Bismuth-thiols as antiseptics for agricultural, industrial and other uses” (Microbion Corporation, priority 2010, dated 2016).

How the values were obtained:
Mycobacterium smegmatis = assay: Single-point BisEDT-antibiotic combination FICI; type: cell-based; details: Msmeg 817
S. aureus = assay: Contaminated open fracture, rat femur critical defect model; type: in vivo; details: BT gel 5 mg/ml, 1 ml in defect, with Cefazolin 5 mgKg^−1 s.c. twice daily 3 days, day 14
Excerpt: Standard errors of the mean are shown as error bars. Animals euthanized early are not excluded from the analysis, however samples from one animal in group 2 have been excluded due to gross contamination.
The aim of this study was to determine whether BTs will reduce infection in a contaminated open fracture model either on their own or with antibiotics. The contaminated rat femur critical defect model is a well-accepted model and was used for the experiments described in this Example. This model offers a standardized model for comparing various possible treatments and their effects on reducing infection and/or improving healing.
Three formulations of microparticulate BTs were produced in a clinically useful hydrogel gel form as described herein.
Two treatment arms were used: in the first arm, BT was used singularly; in the second arm BT was used in conjunction with a systemic antibiotic (ABx).
Six hours after inoculation with S. aureus, the wound was debrided, irrigated with saline and 1 ml of BT gel inserted within the defect.
Six hours after inoculation with S. aureus, the wound was debrided, irrigated with saline and 1 ml of BT gel added inserted within the defect. The antibiotic used was Cefazolin at a dose equivalent to 5 mgKg^−1 delivered via sub-cutaneous injection twice daily for a total of 3-days following the injury. The first dose was administered immediately prior to debridement.
Six hours after inoculation with S. aureus, the wound was debrided and irrigated with saline. The control animals were also treated with Cefazolin as per the regime described above.
The procedure for the in vivo rat injury model was performed as described by Chen et al. (2002 J. Orthop. Res. 20:142; 2005 J. Orthop. Res. 23:816; 2006 J. Bone Joint Surg. Am. 88:1510; 2007 J. Orthop. Trauma 21:693). The rats were anesthetized and prepped for surgery. The anterolateral aspect of the femoral shaft was exposed through a 3-cm incision. The periosteum and attached muscle was stripped from the bone. A polyacetyl plate (27×4×4 mm) was placed on the anterolateral surface of the femur. The plates were predrilled to accept 0.9-mm diameter threaded Kirschner wires. The bases of these plates were formed to fit the contour of the femoral shaft. Pilot holes were drilled through both cortices of the femur using the plate as a template and threaded Kirschner wire was inserted through the plate and femur. The notches that were 6 mm apart on the plate served as a guide for bone removal. A small oscillating saw was used to create the defect while the tissue was cooled by continuous irrigation in an effort to prevent thermal damage.
Several groups of 10 animals each were inoculated with 1×10^5 CFU of S. aureus and treated with BT alone or in combination with antibiotics 6 hours post-inoculation as described above. The groups were as follows: Bis-EDT gel; MB-11 gel; MB-8-2 gel; Bis-EDT gel & Abx; MB-11 gel & Abx; MB-8-2 gel & Abx; Control (Abx alone).
Animals were euthanized 14 days after surgery and bone and hardware sent for microbiological analysis, the results of which are shown in FIG. 7.

P. aeruginosa = assay: Checkerboard broth microdilution MIC and FICI; type: cell-based, Pseudomonas aeruginosa; details: for MIC (μg/mL) Alone: compound alone
S. aureus strains = assay: In vitro inhibition from PMMA cement bead vehicle; type: cell-based, Staphylococcus aureus; details: with and without Tobramicin and Vancomycin
[1] = system: Gram-negative pathogenic bacteria; assay: Checkerboard broth microdilution MIC and FICI; type: cell-based; details: for MIC (μg/mL) Alone: compound alone; for FICI, Fractional Inhibitory Concentration Index: in combination with Cefotaxime
Description: The effects of combinations of microparticulate Bis-EDT and four Bis-EDT analogs prepared as described above, and other agents against representative strains of several Gram-negative pathogenic bacteria were tested. A modification of a common laboratory method was used to determine synergism (FICI≦0.5), enhancement (0.5<FICI≦1.0), antagonism (FICI>4.0) and indifference (1.0<FICI≦4.0) used fractional inhibitory concentrations (FICs) and FIC indices (FICI) (Eliopoulos G and R Moellering. 1991. Antimicrobial combinations. In Antibiotics in Laboratory Medicine, Third Edition, edited by V Lorian. Williams and Wilkins, Baltimore, Md., pp. 432-492; Odds, 2003 J. Antimicrob. Chemother. 52(1):1). The checkerboard technique was used to determine FIC indices and was employed in this study.
Stock solutions of all test articles were prepared at 40× the final target concentration in the appropriate solvent. […] The final drug concentrations in the FIC assay plates were set to bracket the MIC value of each agent for each test organism, unless the strain was totally resistant to the test agent. […] The test organisms were originally received from clinical sources, or from the American Type Culture Collection. Upon receipt, the isolates were streaked onto Tryptic Soy Agar II (TSA). Colonies were harvested from these plates and a cell suspension was prepared in an appropriate broth growth medium containing cryoprotectant. Aliquots were then frozen at −80° C. The frozen seeds of the organisms to be tested in a given assay were thawed, streaked for isolation onto TSA plates, and incubated at 35° C. All organisms were tested in Mueller Hinton II Broth (Becton Dickinson, Lot No. 9044411). The broth was prepared at 1.05× normal weight/volume to offset the 5% volume of the drugs in the final test plates.
Minimal Inhibitory Concentration (MIC) values were previously determined using the broth microdilution method for aerobic bacteria (Clinical and Laboratory Standards Institute (CLSI). Methods for Dilution Antimicrobial Susceptibility Tests for Bacteria That Grow Aerobically; Approved Standard—Eighth Edition. CLSI document M07-A8 [ISBN 1-56238-689-1]. Clinical and Laboratory Standards Institute, 940 West Valley Road, Suite 1400, Wayne, Pa. 19087-1898 USA, 2009.).
FIC values were determined using a broth microdilution method previously described (Sweeney et al., 2003 Antimicrob. Agents Chemother. 47(6):1902-1906). To prepare the test plates, automated liquid handlers (Multidrop 384, Labsystems, Helsinki, Finland; Biomek 2000 and Multimek 96, Beckman Coulter, Fullerton Calif.) were used to conduct serial dilutions and liquid transfers.
The appropriate wells of standard 96-well microdilution plates (Falcon 3918) were filled with 150 μL of the appropriate solvent in columns 2-12 using the Multidrop 384. Three hundred microliters of each secondary test drug was added to each well in Column 1 of the plates. These plates were used to prepare the drug “mother plates” which provided the serial drug dilutions for the drug combination plates. The Biomek 2000 was used to transfer 150 μL of each secondary drug solution (40×) from the wells in Column 1 of the mother plate and to make eleven 2-fold serial dilutions. Mother plates of Bis-EDT (and analogs) were serial diluted top to bottom by hand, using a multichannel pipette. Two mother plates, one for each secondary drug and one for Bis-EDT (or analogs), were combined to form a “checkerboard” pattern by transfer of equal volumes (using a multi-channel pipette) to the drug combination plate. Row H and Column 12 each contained serial dilutions of one of the agents alone for determination of the MIC.
The “daughter plates” were loaded with 180 μL of test medium using the Multidrop 384. Then, the Multimek 96 was used to transfer 10 μL of drug solution from each well of the drug combination mother plate to each corresponding well of the daughter plate in a single step.

[2] = P. aeruginosa 103, in combination with Cefepime
[3] = P. aeruginosa 103, in combination with Cefotaxime
[4] = P. aeruginosa 1381, in combination with Cefepime
[5] = P. aeruginosa 1384, in combination with Cefepime
[6] = P. aeruginosa 1474, in combination with Cefepime
[7] = P. aeruginosa 1479, in combination with Cefepime
[8] = P. aeruginosa 2566, in combination with Cefepime
[9] = P. aeruginosa 2568, in combination with Cefepime

## NNC(=O)c1ccncc1 [Isoniazid]
Mycobacterium smegmatis
  FICI, single-point BisEDT-antibiotic combination: 0.88

## Capreomycin
Mycobacterium smegmatis
  FICI, single-point BisEDT-antibiotic combination: 0.75

## bismuth pyrithione/butanedithiol [MB-8-2]
S. aureus
  S. aureus infection detected on hardware, effect on Cefazolin activity: enhanced antibiotic activity
  S. aureus infection of injured bone, effect on Cefazolin activity: enhanced
P. aeruginosa; P. aeruginosa 103
  MIC (μg/mL) Alone: 2 µg/mL
P. aeruginosa; [2]
  FICI, Fractional Inhibitory Concentration Index: 1.11
P. aeruginosa; [3]
  FICI, Fractional Inhibitory Concentration Index: 1.11
P. aeruginosa; P. aeruginosa 1381
  MIC (μg/mL) Alone: 2 µg/mL
P. aeruginosa; [4]
  FICI, Fractional Inhibitory Concentration Index: 1.23
P. aeruginosa; P. aeruginosa 1384
  MIC (μg/mL) Alone: 2 µg/mL
P. aeruginosa; [5]
  FICI, Fractional Inhibitory Concentration Index: 0.80
P. aeruginosa; P. aeruginosa 1474
  MIC (μg/mL) Alone: 2 µg/mL
P. aeruginosa; [6]
  FICI, Fractional Inhibitory Concentration Index: 1.11
P. aeruginosa; P. aeruginosa 1479
  MIC (μg/mL) Alone: 2 µg/mL
P. aeruginosa; [7]
  FICI, Fractional Inhibitory Concentration Index: 1.23
P. aeruginosa; P. aeruginosa 2566
  MIC (μg/mL) Alone: 2 µg/mL
P. aeruginosa; [8]
  FICI, Fractional Inhibitory Concentration Index: 1.23
P. aeruginosa; P. aeruginosa 2568
  MIC (μg/mL) Alone: 2 µg/mL
P. aeruginosa; [9]
  FICI, Fractional Inhibitory Concentration Index: 0.98
S. aureus strains
  Effect on S. aureus strains in vitro from PMMA cement beads: inhibitory effects
[1]; K. pneumoniae 1346
  MIC (μg/mL) Alone: 0.5 µg/mL
  FICI, Fractional Inhibitory Concentration Index: 1.37
[1]; K. pneumoniae 1355
  MIC (μg/mL) Alone: 0.5 µg/mL
  FICI, Fractional Inhibitory Concentration Index: 1.37
[1]; K. pneumoniae 2238
  MIC (μg/mL) Alone: 0.5 µg/mL
  FICI, Fractional Inhibitory Concentration Index: 1.37
[1]; K. pneumoniae 2541
  MIC (μg/mL) Alone: 1 µg/mL
  FICI, Fractional Inhibitory Concentration Index: 1.12
[1]; K. pneumoniae 2546
  MIC (μg/mL) Alone: 1 µg/mL
[1]; K. pneumoniae 2549
  MIC (μg/mL) Alone: 1 µg/mL
  FICI, Fractional Inhibitory Concentration Index: 1.12

## bismuth pyrithione/ethanedithiol [MB-11]
S. aureus
  S. aureus infection detected on hardware, effect on Cefazolin activity: enhanced antibiotic activity
  S. aureus infection of injured bone, effect on Cefazolin activity: enhanced
P. aeruginosa; P. aeruginosa 103
  MIC (μg/mL) Alone: 1 µg/mL
P. aeruginosa; [2]
  FICI, Fractional Inhibitory Concentration Index: 0.12
P. aeruginosa; [3]
  FICI, Fractional Inhibitory Concentration Index: 1.12
P. aeruginosa; P. aeruginosa 1381
  MIC (μg/mL) Alone: 1 µg/mL
P. aeruginosa; [4]
  FICI, Fractional Inhibitory Concentration Index: 1.12
P. aeruginosa; P. aeruginosa 1384
  MIC (μg/mL) Alone: 1 µg/mL
P. aeruginosa; [5]
  FICI, Fractional Inhibitory Concentration Index: 1.12
P. aeruginosa; P. aeruginosa 1474
  MIC (μg/mL) Alone: 0.5 µg/mL
P. aeruginosa; [6]
  FICI, Fractional Inhibitory Concentration Index: 1.12
P. aeruginosa; P. aeruginosa 1479
  MIC (μg/mL) Alone: 0.5 µg/mL
P. aeruginosa; [7]
  FICI, Fractional Inhibitory Concentration Index: 0.87
P. aeruginosa; P. aeruginosa 2566
  MIC (μg/mL) Alone: 0.5 µg/mL
P. aeruginosa; [8]
  FICI, Fractional Inhibitory Concentration Index: 0.93
P. aeruginosa; P. aeruginosa 2568
  MIC (μg/mL) Alone: 0.5 µg/mL
P. aeruginosa; [9]
  FICI, Fractional Inhibitory Concentration Index: 0.87
S. aureus strains
  Effect on S. aureus strains in vitro from PMMA cement beads: inhibitory effects
[1]; K. pneumoniae 1346
  MIC (μg/mL) Alone: 0.5 µg/mL
  FICI, Fractional Inhibitory Concentration Index: 1.37
[1]; K. pneumoniae 1355
  MIC (μg/mL) Alone: 0.5 µg/mL
  FICI, Fractional Inhibitory Concentration Index: 1.87
[1]; K. pneumoniae 2238
  MIC (μg/mL) Alone: 0.5 µg/mL
  FICI, Fractional Inhibitory Concentration Index: 1.37
[1]; K. pneumoniae 2541
  MIC (μg/mL) Alone: 0.5 µg/mL
  FICI, Fractional Inhibitory Concentration Index: 0.73
[1]; K. pneumoniae 2546
  MIC (μg/mL) Alone: 0.5 µg/mL
  FICI, Fractional Inhibitory Concentration Index: 1.37
[1]; K. pneumoniae 2549
  MIC (μg/mL) Alone: 0.5 µg/mL
  FICI, Fractional Inhibitory Concentration Index: 1.37
